Measurements as given in publication PMC4081582, “Enhancing Effect of Borneol and Muscone on Geniposide Transport across the Human Nasal Epithelial Cell Monolayer” (PLoS ONE, 2014).

What was measured:
[1] = system: actin; assay: Actin immunostaining of HNEC monolayer (tight junction); type: cell-based, human; conditions: 3 h exposure with geniposide 50 µg·mL^−1, vs control
From the text: Cells cultured on 12-well polyester membrane Transwell clear inserts were stained for actin. […] Fluorescence was visualized on an epifluorescence microscope (IX-71, Olympus, Japan) using a blue filter and images were taken using the analysis software.

[2] = system: HNECs; assay: Membrane fluidity of HNECs by FRAP; type: cell-based, human
Method: The cells were seeded on cell plate at a density of 5×10^4 cells·cm^−2. The above formulation groups were added and the plates were incubated for 3 h at 37 °C in a 5% CO2 incubator. Cells were rinsed with HBSS and stained with NBD-C6-HPC at 2 µg·mL^−1 for 30 min.
A method of fluorescence recovery after photobleaching (FRAP) was used here. After the definition of line scanning position, length and photobleaching position, the monolayer was visualized by a Confocal Laser Scanning Microscope under the following conditions: excitation wavelength of 488 nm, emission wavelength of 530 nm, laser power for fluorescence bleaching of 100%, bleaching time of 0.7 s, scanning frequency of 1.65 s and the total scanning time of 100 s. The fluorescence intensity time-variation at the photobleaching position was recorded and image formation was obtained by confocal tomoscanning.
The membrane fluidity was represented by fluorescence recovery rate (R) which was calculated with the following equation (4): [drawing 4] where F0 is the instant fluorescence value after photobleaching, F1 is the fluorescence value before photobleaching and F2 is the fluorescence recovery value after photobleaching.

[3] = system: HNEC monolayer; assay: TEER measurement of HNEC monolayer; type: cell-based, human
Method: Transepithelial electrical resistance was measured using an EVOM instrument (Millipore Corporation, USA) to check the monolayer integrity. The TEER of untreated cells and cells treated with borneol and muscone was determined in BEGM:DMEM/F12 (1∶1) before the experiment, after the experiment and after 24 h.

[4] = system: HNECs; assay: MTT cytotoxicity assay on HNECs; type: cell-based, human; conditions: 24 h
Method: The cytotoxicity of the main active ingredients in “Xing Nao Jing” on HNECs was evaluated by the methyl thiazolyl tetrazolium (MTT) colorimetric assay. Briefly, 100 µL of 5×10^4 cells·mL^−1 was seeded into 96-well plates. After 24 h, the medium was removed and replaced with a fresh medium containing increasing concentrations of geniposide, borneol, muscone and their combinations for another 24 h. After that, 15 µL of a 5 mg·mL^−1 MTT solution in 100 µL BEGM was added to each well. After 4 h of incubation, the supernatant was discarded and formazan crystals were dissolved in DMSO followed by vigorous mixing. Control wells were incubated with BEGM only and were treated similarly as above. The optical density was determined at 490 nm with a Multiskan Go microplate reader (Thermo, USA). The percent viability of the cells was determined from the absorbance values considering that of the control as 100%.
The percentage of cell toxicity in the MTT assay was calculated by the following equation (1): [drawing 1]

[5] = mice, intravenous administration; cited from earlier work
[6] = system: P-gp; assay: P-gp substrate assessment from bidirectional transport in HNEC monolayer; type: in vitro ADME, human; conditions: HNEC model
Method: (§1) The transport experiments were carried out when transepithelial electrical resistance (TEER) value was higher than 500 Ω·cm^2. The transport studies were performed by initially incubating the monolayers in Hanks balanced salt solution (HBSS) for 30 min at 37 °C. To measure apical (A) → basolateral (B) transport, 0.5 mL of drug solution and 1.5 mL of HBSS were added in the A and B sides, respectively. Basolateral (B) → apical (A) transport was evaluated by adding 1.5 mL of drug solution in B side and 0.5 mL of HBSS in A side.
(§2) The apparent permeability coefficients (Papp) for geniposide were calculated according to the following equation (2): [drawing 2] where Papp is the permeability, dQ/dt is the apparent appearance rate of drug in the receiver side calculated using linear regression of amounts in the receiver chamber versus time, C is the drug concentration in the donor chamber and S is the surface area of the monolayer. The efflux ratio (ER) was calculated according to the following equation (3): [drawing 3]

[7] = cited from earlier work
[8] = Transport of geniposide across the HNEC monolayer; type: in vitro ADME, human; conditions: human
Method: (§3) When HNECs reached approximately 80–90% confluence, the cells were detached with trypsin and were seeded at a density of 2×10^5 cells·cm^−2 on PET inserts. The culture medium was BEGM:DMEM/F12 (1∶1) in both sides at 37 °C in an atmosphere of 5% CO2 and 95% relative humidity, which was first changed after 24 h of seeding and then every 2 days.
as §1
(§4) Geniposide transport was studied at three concentrations: 25, 50 and 100 µg·mL^−1. The effect of borneol was studied at 27.8, 55.6 and 111.2 µg·mL^−1 concentrations in the presence of 50 µg·mL^−1 geniposide. The effect of muscone was studied at 4.17, 8.34 and 16.68 µg·mL^−1 concentrations in the presence of 50 µg·mL^−1 geniposide. Finally, the effects of both borneol and muscone were studied at the concentrations mentioned above in the presence of 50 µg·mL^−1 geniposide.
(§5) Each measurement was evaluated in triplicate. Cells were incubated in a 37 °C shaking incubator. Samples of 200 µL were taken from the apical side (to study B → A transport) and samples of 600 µL were taken from the basal side (to study A → B transport) at 30, 60, 90, 120, 150, 180 min time intervals. The same volume of fresh preheated HBSS was added to keep the volume constant. Samples were centrifuged for 10 min at 12,000 r·min^−1 and the supernatant was analyzed for geniposide by HPLC.
(§6) An UV-HPLC method was used to quantify the geniposide concentrations in the transport studies. The chromatographic conditions consisted of a Purospher Star C18 column (4×200 mm, particle size 5 µm) plus guard column. Geniposide samples were analyzed with UV detection (λ = 238 nm) and the mobile phase was composed of acetonitrile and water (16∶84, v/v). The mobile phase was pumped at a flow rate of 1 mL·min^−1 and the injected volume was 20 µL. In these conditions, the retention time of geniposide was 8.5 min.
as §2

[9] = system: HNEC monolayer; assay: Transport of geniposide across the HNEC monolayer; type: in vitro ADME, human; conditions: for B→A fluxes of geniposide / A→B fluxes of geniposide: P<0.05 vs control
Method: as §3, §1, §4, §5, §6, §2

[10] = rats, at 3 h; cited from earlier work
[11] = Ge 50 µg·mL^−1 +Bo 27.8 µg·mL^−1
[12] = Ge 50 µg·mL^−1 +Bo 27.8 µg·mL^−1 Mu 4.17 µg·mL^−1
[13] = Ge 50 µg·mL^−1 +Bo 55.6 µg·mL^−1
[14] = Ge 50 µg·mL^−1 +Bo 55.6 µg·mL^−1 Mu 8.34 µg·mL^−1
[15] = Ge 50 µg·mL^−1 +Bo 111.2 µg·mL^−1
[16] = Ge 50 µg·mL^−1 +Bo 111.2 µg·mL^−1 Mu 16.68 µg·mL^−1
[17] = Ge 50 µg·mL^−1 +Mu 4.17 µg·mL^−1
[18] = Ge 50 µg·mL^−1 +Mu 8.34 µg·mL^−1
[19] = Ge 50 µg·mL^−1 +Mu 16.68 µg·mL^−1
[20] = geniposide 50 µg·mL^−1 alone (control)

C[C@@H]1CCCCCCCCCCCCC(=O)C1 [muscone, Muscone]
levels of the TJ proteins localized in the cell-cell junctions [1]: decreased | Fluorescence recovery rate R (%)±SD ([2]; Mu 4.17 µg·mL^−1 with Ge 50 µg·mL^−1, 3 h): 36.43±3.37% | Fluorescence recovery rate R (%)±SD ([2]; Mu 8.34 µg·mL^−1 with Ge 50 µg·mL^−1, 3 h): 45.45±1.68 % | Fluorescence recovery rate R (%)±SD ([2]; Mu 16.68 µg·mL^−1 with Ge 50 µg·mL^−1, 3 h): 49.77±5.63 % | TEER after washing and incubating with BEGM:DMEM/F12 (1∶1) for 24 h ([3]; after permeation experiment): increased again | TEER decrease during permeation studies, of the initial value ([3]; borneol 55.6, 111.2 µg·mL^−1, muscone 8.34, 16.68 µg·mL^−1, and combinations, P<0.05): 10–20%

COC(=O)C1=CO[C@@H](O[C@@H]2O[C@H](CO)[C@@H](O)[C@H](O)[C@H]2O)[C@@H]2C(CO)=CC[C@H]12 [geniposide, Geniposide]
concentration range with no cell cytotoxicity [4]: 0 to 400 µg/mL | brain/blood drug ratio [5]: about 10% | P-gp substrate [6]: not a P-gp substrate | apparent partition coefficient between octanol and water [7]: about 0.108 | Papp A→B at 180 min, 50 µg·mL^−1 [8, 11]: 11.7 ± 1.2 nm/s | Papp B→A at 180 min, 50 µg·mL^−1 [8, 11]: 16.1 ± 0.34 nm/s | Papp A→B at 180 min, 50 µg·mL^−1 [8, 12]: 14.3 ± 0.83 nm/s | Papp B→A at 180 min, 50 µg·mL^−1 [8, 12]: 18.1 ± 0.24 nm/s | Papp A→B at 180 min, 50 µg·mL^−1 [8, 13]: 13.5 ± 0.86 nm/s | Papp B→A at 180 min, 50 µg·mL^−1 [8, 13]: 19.2 ± 1.11 nm/s | Papp A→B at 180 min, 50 µg·mL^−1 [8, 14]: 17.5 ± 0.43 nm/s | Papp B→A at 180 min, 50 µg·mL^−1 [8, 14]: 19.16 ± 0.19 nm/s | Papp A→B at 180 min, 50 µg·mL^−1 [8, 15]: 19.9 ± 2.93 nm/s | Papp B→A at 180 min, 50 µg·mL^−1 [8, 15]: 19.9 ± 1.26 nm/s | Papp A→B at 180 min, 50 µg·mL^−1 [8, 16]: 19.2 ± 0.49 nm/s | Papp B→A at 180 min, 50 µg·mL^−1 [8, 16]: 23.9 ± 0.52 nm/s | Papp A→B at 180 min, 50 µg·mL^−1 [8, 17]: 11.5 ± 0.68 nm/s | Papp B→A at 180 min, 50 µg·mL^−1 [8, 17]: 16 ± 0.21 nm/s | Papp A→B at 180 min, 50 µg·mL^−1 [8, 18]: 16.1 ± 0.54 nm/s | Papp B→A at 180 min, 50 µg·mL^−1 [8, 18]: 20.39 ± 0.18 nm/s | Papp A→B at 180 min, 50 µg·mL^−1 [8, 19]: 19.7 ± 1.08 nm/s | Papp B→A at 180 min, 50 µg·mL^−1 [8, 19]: 21.04 ± 0.2 nm/s | Papp A→B at 180 min, 25 µg·mL^−1 ([8]; geniposide 25 µg·mL^−1): 12.7 ± 3.14 nm/s | Papp B→A at 180 min, 25 µg·mL^−1 ([8]; geniposide 25 µg·mL^−1): 13.5 ± 1.13 nm/s | efflux ratio at 180 min, 25 µg·mL^−1 ([8]; geniposide 25 µg·mL^−1, read-out: ER±SD(B→A/A→B)): 1.1 ± 0.256 | Papp A→B at 180 min, 50 µg·mL^−1 [8, 20]: 12.2 ± 0.15 nm/s | Papp B→A at 180 min, 50 µg·mL^−1 [8, 20]: 12.6 ± 0.84 nm/s | efflux ratio at 180 min, 50 µg·mL^−1 ([8]; geniposide 50 µg·mL^−1 alone (control), read-out: ER±SD(B→A/A→B)): 1.03 ± 0.076 | Papp A→B at 180 min, 100 µg·mL^−1 ([8]; geniposide 100 µg·mL^−1): 12.5 ± 0.74 nm/s | Papp B→A at 180 min, 100 µg·mL^−1 ([8]; geniposide 100 µg·mL^−1): 11.9 ± 1.04 nm/s | efflux ratio at 180 min, 100 µg·mL^−1 ([8]; geniposide 100 µg·mL^−1, read-out: ER±SD(B→A/A→B)): 0.951 ± 0.132 | Papp at 180 min ([8]; HNEC monolayer, geniposide 25-100 µg·mL^−1, read-out: permeability coefficients): 12.2 to 12.7 nm/s | ER±SD(B→A/A→B) [9, 11]: 1.388±0.162 | ER±SD(B→A/A→B) [9, 12]: 1.268±0.057 | ER±SD(B→A/A→B) [9, 13]: 1.429±0.149 | ER±SD(B→A/A→B) [9, 14]: 1.092±0.023 | ER±SD(B→A/A→B) [9, 15]: 1.012±0.106 | ER±SD(B→A/A→B) [9, 16]: 1.245±0.026 | ER±SD(B→A/A→B) [9, 17]: 1.400±0.071 | ER±SD(B→A/A→B) [9, 18]: 1.268±0.033 | ER±SD(B→A/A→B) [9, 19]: 1.072±0.069 | B→A fluxes of geniposide ([9]; Ge 50 µg·mL^−1 combined with borneol (27.8, 55.6, 111.2 µg·mL^−1)): significantly increased | B→A fluxes of geniposide ([9]; Ge 50 µg·mL^−1 combined with muscone (4.17, 8.34, 16.68 µg·mL^−1)): significantly increased | A→B fluxes of geniposide ([9]; Ge 50 µg·mL^−1 in presence of borneol (111.2 µg·mL^−1)): significantly increased | A→B fluxes of geniposide ([9]; Ge 50 µg·mL^−1 in presence of muscone (8.34, 16.68 µg·mL^−1)): significantly increased | permeability values in both directions ([9]; Ge 50 µg·mL^−1 in the presence of borneol and muscone (Bo 27.8/Mu 4.17, Bo 55.6/Mu 8.34, Bo 111.2/Mu 16.68 µg·mL^−1), P<0.05): an increasing of permeability values in both directions was observed in a concentration-dependent manner | (B→A)/(A→B) permeability ER ([9]; geniposide 25, 50 and 100 µg·mL^−1): less than 2 | Fluorescence recovery rate R (%)±SD ([2]; Ge 50 µg·mL^−1 alone (control), 3 h): 33.08±1.74% | absorption percentage in the intestinal tract [10]: about 15.9%
